Experimental data from publication PMC3344384 (Chemistry & biology, 2011).

Key:
SENP1 = target: T1, SENP1 (Homo sapiens, UniProt Q9P0U3); assay: SUMO1-AMC assay, SENP1; type: biochemical; conditions: SUMO1-AMC substrate
T1 sequence (Q9P0U3 1-644): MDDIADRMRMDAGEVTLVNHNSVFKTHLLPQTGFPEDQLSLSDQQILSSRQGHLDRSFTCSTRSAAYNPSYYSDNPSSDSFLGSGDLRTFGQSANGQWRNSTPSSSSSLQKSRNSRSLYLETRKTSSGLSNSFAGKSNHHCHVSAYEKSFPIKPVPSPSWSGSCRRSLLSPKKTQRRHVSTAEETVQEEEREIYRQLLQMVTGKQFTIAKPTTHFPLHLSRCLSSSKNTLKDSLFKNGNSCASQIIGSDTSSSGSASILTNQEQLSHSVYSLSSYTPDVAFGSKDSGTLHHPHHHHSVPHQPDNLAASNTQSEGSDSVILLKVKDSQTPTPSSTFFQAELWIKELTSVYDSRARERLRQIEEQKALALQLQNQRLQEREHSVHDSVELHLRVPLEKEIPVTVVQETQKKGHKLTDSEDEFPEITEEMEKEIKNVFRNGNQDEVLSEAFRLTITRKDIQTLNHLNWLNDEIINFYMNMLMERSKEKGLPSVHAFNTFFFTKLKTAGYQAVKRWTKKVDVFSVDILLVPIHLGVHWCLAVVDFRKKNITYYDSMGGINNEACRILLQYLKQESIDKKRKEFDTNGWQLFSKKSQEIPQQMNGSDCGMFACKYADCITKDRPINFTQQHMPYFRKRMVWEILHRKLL

caspase-1 = target: T2, caspase-1 (Homo sapiens, UniProt P29466); assay: cysteine protease selectivity, caspase-1; type: biochemical
T2 sequence (P29466 120-297 limits assumed): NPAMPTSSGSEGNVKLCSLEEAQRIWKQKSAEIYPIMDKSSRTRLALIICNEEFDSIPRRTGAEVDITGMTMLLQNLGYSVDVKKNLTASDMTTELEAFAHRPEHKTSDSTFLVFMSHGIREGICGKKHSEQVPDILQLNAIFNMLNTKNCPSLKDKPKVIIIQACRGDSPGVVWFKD
T2 sequence (P29466 317-404 limits assumed): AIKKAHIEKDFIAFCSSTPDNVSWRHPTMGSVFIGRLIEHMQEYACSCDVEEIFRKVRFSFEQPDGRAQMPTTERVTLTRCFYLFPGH

papain = target: T3, papain (Carica papaya, UniProt P00784); assay: cysteine protease selectivity, papain; type: biochemical
T3 sequence (P00784 134-345): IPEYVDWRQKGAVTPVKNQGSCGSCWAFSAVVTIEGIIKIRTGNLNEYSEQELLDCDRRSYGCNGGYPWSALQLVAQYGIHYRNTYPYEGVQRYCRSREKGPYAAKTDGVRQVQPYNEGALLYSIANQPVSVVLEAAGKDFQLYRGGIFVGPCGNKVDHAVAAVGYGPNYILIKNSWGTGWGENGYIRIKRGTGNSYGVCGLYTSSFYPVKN

caspase-3 = target: T4, caspase-3 (Homo sapiens, UniProt P42574); assay: cysteine protease selectivity, caspase-3; type: biochemical
T4 sequence (P42574 29-175 limits assumed): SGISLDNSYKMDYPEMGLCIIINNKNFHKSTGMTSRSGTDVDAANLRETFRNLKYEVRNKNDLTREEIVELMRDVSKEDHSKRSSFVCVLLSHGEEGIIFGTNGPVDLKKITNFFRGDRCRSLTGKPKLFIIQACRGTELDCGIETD
T4 sequence (P42574 176-277 limits assumed): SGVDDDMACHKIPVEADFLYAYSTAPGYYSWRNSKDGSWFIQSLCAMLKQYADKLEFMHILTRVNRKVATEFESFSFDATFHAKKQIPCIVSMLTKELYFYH

USP1/UAF1 = USP1/UAF1 (Homo sapiens, UniProt O94782+Q8TAF3); assay: reversibility of inhibition by rapid dilution; conditions: incubation at 10 times IC50, 100-fold rapid dilution
Sequence of USP1/UAF1 (Q8TAF3 whole entry, one chain of several): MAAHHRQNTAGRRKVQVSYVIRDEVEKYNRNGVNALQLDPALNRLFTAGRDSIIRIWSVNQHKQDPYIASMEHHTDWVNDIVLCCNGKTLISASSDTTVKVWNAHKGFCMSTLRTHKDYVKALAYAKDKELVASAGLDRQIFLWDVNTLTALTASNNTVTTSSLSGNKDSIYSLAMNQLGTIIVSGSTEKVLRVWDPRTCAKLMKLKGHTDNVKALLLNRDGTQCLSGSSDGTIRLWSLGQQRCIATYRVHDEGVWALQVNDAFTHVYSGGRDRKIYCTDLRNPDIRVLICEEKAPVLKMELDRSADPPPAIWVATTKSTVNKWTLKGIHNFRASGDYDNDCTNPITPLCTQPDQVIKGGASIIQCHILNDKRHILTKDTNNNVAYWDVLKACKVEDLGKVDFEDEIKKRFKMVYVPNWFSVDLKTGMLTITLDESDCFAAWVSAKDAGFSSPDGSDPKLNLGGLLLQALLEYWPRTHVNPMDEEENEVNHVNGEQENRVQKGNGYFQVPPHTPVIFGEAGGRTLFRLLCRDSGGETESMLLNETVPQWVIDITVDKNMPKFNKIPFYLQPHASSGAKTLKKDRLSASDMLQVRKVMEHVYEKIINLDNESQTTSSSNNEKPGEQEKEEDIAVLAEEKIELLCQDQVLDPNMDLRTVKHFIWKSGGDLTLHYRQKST

USP1 alone = target: T5, USP1 alone (Homo sapiens, UniProt O94782); assay: Ub-Rho assay, USP1 alone; type: biochemical; conditions: Ub-Rho substrate, absence of UAF1 subunit
T5 sequence (O94782 1-785): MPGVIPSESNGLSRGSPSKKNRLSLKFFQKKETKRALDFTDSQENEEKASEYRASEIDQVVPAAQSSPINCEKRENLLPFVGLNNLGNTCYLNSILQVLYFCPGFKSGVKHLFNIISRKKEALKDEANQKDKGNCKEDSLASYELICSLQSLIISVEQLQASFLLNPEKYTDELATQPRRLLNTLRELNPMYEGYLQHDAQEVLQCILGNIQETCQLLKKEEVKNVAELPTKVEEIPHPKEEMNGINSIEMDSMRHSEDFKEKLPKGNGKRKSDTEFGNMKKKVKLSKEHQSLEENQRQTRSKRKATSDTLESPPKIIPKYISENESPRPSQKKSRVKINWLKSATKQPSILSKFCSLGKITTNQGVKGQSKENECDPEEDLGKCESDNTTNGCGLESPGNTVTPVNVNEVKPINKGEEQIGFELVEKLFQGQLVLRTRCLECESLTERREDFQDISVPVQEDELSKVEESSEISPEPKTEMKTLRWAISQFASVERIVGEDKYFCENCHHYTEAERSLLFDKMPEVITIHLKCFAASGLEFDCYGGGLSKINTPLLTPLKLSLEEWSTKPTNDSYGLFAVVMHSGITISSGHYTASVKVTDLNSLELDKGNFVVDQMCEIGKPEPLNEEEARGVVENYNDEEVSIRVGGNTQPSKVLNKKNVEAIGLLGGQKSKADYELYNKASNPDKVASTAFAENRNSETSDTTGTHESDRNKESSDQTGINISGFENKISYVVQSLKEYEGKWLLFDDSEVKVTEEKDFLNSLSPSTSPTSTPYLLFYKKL

UCH-L3 = target: T6, UCH-L3 (Homo sapiens, UniProt P15374); assay: Ub-Rho assay, UCH-L3; type: biochemical
T6 sequence (P15374 1-230): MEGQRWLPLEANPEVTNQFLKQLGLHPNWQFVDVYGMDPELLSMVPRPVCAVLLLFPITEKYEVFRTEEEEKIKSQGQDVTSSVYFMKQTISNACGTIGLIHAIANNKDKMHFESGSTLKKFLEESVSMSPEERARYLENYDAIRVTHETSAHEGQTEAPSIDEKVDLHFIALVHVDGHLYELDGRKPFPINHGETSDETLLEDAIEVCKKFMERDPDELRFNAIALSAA

SMILES | inhibition of SENP1 (SENP1) | IC50 (caspase-1) [µM] | IC50 (papain) [µM] | IC50 (caspase-3) [µM] | reversibility of inhibition (USP1/UAF1) | inhibition of USP1 alone (USP1 alone) | IC50 (UCH-L3) [µM]
CN1CCN(CCCN2c3ccccc3Sc3ccc(C(F)(F)F)cc32)CC1 [Trifluoperazine, trifluoperazine] | low level of inhibition | > 250 | ~130 | > 250 | largely reversible inhibitors | low level of inhibition | > 500
CC(C)(Sc1ccc(CCN(CCCCC2CCCCC2)C(=O)NC2CCCCC2)cc1)C(=O)O [GW7647] | low level of inhibition | 42 | ~130 | > 250 | largely reversible inhibitors | low level of inhibition | > 200
O=c1[nH]c2ccccc2n1C1CCN(CCCC(c2ccc(F)cc2)c2ccc(F)cc2)CC1 [Pimozide, pimozide] | low level of inhibition | > 250 | > 250 | > 250 | largely reversible inhibitors | low level of inhibition | > 500
OCCN1CCN(CCC=C2c3ccccc3Sc3ccc(C(F)(F)F)cc32)CC1 [Flupenthixol, flupenthixol] | low level of inhibition | > 250 | > 250 | > 250 | largely reversible inhibitors | low level of inhibition | > 500
